Laboratory results from ChEMBL document CHEMBL5108067, “Discovery of Potent OTUB1/USP8 Dual Inhibitors Targeting Proteostasis in Non-Small-Cell Lung Cancer” (J Med Chem, 2022).

How the values were obtained:
[1] = target: T1, Ubiquitin thioesterase OTUB1 (Homo sapiens, UniProt Q96FW1); assay: Inhibition of N-terminal His-6 tagged OTUB1 (40 to 271 residues) (unknown origin) expressed in Escherichia coli BL21 (DE3) cells at 10 nM using Ub-Rho measured after 0.5 to 3 hrs by fluorescence based Plate reader method relative to control; conditions: time 0.5-3 hrs, values are per cent of control
T1 sequence (Q96FW1 whole entry, the tested form may be a part): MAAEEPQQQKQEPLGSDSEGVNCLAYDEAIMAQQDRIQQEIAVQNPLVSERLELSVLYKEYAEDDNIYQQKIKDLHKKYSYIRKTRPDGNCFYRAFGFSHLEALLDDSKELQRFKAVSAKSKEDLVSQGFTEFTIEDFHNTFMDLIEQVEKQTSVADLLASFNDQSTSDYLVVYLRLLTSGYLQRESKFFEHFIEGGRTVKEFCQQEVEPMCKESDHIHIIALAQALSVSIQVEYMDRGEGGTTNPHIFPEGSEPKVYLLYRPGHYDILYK

[2] = target: T2, Ubiquitin carboxyl-terminal hydrolase 8 (Homo sapiens) (UniProt P40818); assay: Inhibition of N-terminal His-6 tagged USP8 (734 to 1110 residues) (unknown origin) expressed in Escherichia coli BL21 (DE3) cells at 100 nM measured after 3 hrs by fluorescence based Plate reader method relative to control; conditions: values are per cent of control
T2 sequence (whole entry): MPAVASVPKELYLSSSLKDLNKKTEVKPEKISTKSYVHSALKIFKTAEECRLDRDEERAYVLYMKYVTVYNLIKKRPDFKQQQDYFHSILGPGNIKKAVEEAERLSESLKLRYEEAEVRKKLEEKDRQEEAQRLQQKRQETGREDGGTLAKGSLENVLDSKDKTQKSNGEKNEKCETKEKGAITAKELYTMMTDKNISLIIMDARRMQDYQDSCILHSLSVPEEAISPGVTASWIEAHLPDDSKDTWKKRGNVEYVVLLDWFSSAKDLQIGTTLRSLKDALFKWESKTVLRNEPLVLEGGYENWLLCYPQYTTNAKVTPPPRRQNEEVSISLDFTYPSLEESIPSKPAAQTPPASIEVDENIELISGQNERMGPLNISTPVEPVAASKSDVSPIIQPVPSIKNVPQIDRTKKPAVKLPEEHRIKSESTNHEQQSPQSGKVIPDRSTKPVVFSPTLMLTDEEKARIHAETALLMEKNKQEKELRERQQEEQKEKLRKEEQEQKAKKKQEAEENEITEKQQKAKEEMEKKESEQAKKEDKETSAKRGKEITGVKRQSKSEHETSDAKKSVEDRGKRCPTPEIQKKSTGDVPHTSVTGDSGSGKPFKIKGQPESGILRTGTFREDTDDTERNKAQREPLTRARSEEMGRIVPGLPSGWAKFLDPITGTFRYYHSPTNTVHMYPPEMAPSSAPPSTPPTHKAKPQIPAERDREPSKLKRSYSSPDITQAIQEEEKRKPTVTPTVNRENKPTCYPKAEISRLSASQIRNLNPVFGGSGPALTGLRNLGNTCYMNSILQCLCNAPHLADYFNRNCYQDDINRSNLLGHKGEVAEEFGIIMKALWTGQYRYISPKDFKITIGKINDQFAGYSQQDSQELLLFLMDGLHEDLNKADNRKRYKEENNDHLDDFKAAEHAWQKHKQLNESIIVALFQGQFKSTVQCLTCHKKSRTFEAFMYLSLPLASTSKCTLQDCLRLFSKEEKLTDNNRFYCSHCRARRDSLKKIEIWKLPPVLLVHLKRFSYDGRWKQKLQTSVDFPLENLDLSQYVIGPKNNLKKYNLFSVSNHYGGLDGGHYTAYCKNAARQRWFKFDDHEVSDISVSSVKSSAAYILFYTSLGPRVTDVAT

[3] = target: T2, Ubiquitin carboxyl-terminal hydrolase 8 (Homo sapiens); assay: Inhibition of N-terminal His-6 tagged USP8 (734 to 1110 residues) (unknown origin) expressed in Escherichia coli BL21 (DE3) cells at 10 nM measured after 3 hrs by fluorescence based Plate reader method relative to control; conditions: values are per cent of control
[4] = target: T1, Ubiquitin thioesterase OTUB1; assay: Inhibition of N-terminal His-6 tagged OTUB1 (40 to 271 residues) (unknown origin) expressed in Escherichia coli BL21 (DE3) cells at 100 nM using Ub-Rho measured after 0.5 to 3 hrs by fluorescence based Plate reader method relative to control; conditions: time 0.5-3 hrs, values are per cent of control
[5] = Aqueous solubility of the compound measured after 24 hr by […] LC-MS/MS analysis; format: physicochemical; conditions: buffer

| Structure (SMILES) | residual activity [1] | residual activity [2] | residual activity [3] | residual activity [4] | solubility [5] |
| --- | --- | --- | --- | --- | --- |
| O=C1c2ccccc2C(=O)c2oc(-c3c(F)cccc3Cl)nc21 | 37.3% | 26.5% | 62.9% | 9.6% | Insoluble |
| O=C1c2ccccc2C(=O)c2oc(-c3c(F)ccc(F)c3Cl)nc21 | 23.3% | 28.4% | 52.4% | 10.4% | Insoluble |
| CN1CCN(CCOc2ccc(Cl)c(-c3nc4c(o3)C(=O)c3ccccc3C4=O)c2F)CC1 | 14.4% | 32.6% | 33.1% | 7.2% | Soluble |
| CN1CC[C@@H](Oc2ccc(-c3nc4c(o3)C(=O)c3ccccc3C4=O)cc2Cl)C1 | 69.8% | 31.2% | 65.5% | 38.5% | – |
| COc1cc(F)cc(-c2nc3c([nH]2)C(=O)c2ccccc2C3=O)c1 | 84.8% | 85.2% | 91.4% | 77.9% | – |
| COc1cc(-c2nc3c(o2)C(=O)c2ccccc2C3=O)ccc1C(F)(F)F | 71.4% | 42.7% | 58.5% | 46.4% | – |
| O=C1c2ccccc2C(=O)c2oc(-c3c(F)ccc(F)c3F)nc21 | 40.7% | 21.9% | 36.6% | 15.6% | – |
| CN1CCN(CCOc2cccc(-c3nc4c(o3)C(=O)c3ccccc3C4=O)c2)CC1 | 66.8% | 53.6% | 76.4% | 36.9% | – |
| COc1ccc(F)c(-c2nc3c(o2)C(=O)c2ccccc2C3=O)c1 | 75% | 33.1% | 61.1% | 31.2% | – |
| COc1ccc(F)c(-c2nc3c(o2)C(=O)c2ccccc2C3=O)c1Cl | 23.3% | 23.6% | 41.5% | 20.5% | – |
| O=C1c2ccccc2C(=O)c2oc(-c3ccccc3C(F)(F)F)nc21 | 62.6% | 17.7% | 50.7% | 25.8% | – |

Further lines, results first:

| residual activity [1] | residual activity [2] | residual activity [3] | residual activity [4] | solubility [5] | Structure (SMILES) |
| --- | --- | --- | --- | --- | --- |
| 23.6% | 24.9% | 51.8% | 12.8% | Soluble | CN1CC[C@@H](Oc2cc(-c3nc4c(o3)C(=O)c3ccccc3C4=O)ccc2Cl)C1 |
| 66.9% | 44.6% | 58.6% | 58.7% | – | Cc1ccc(-c2nc3c(o2)C(=O)c2ccccc2C3=O)cc1 |
| 50.2% | 22.7% | 40.1% | 19.8% | – | O=C1c2ccccc2C(=O)c2oc(-c3cccc(F)c3F)nc21 |
| 60% | 20.8% | 43.1% | 25.1% | – | O=C1c2ccccc2C(=O)c2oc(-c3ccccc3Cl)nc21 |
| 75% | 34.2% | 59.3% | 41.5% | – | CN1CC[C@@H](Oc2cc(Cl)cc(-c3nc4c(o3)C(=O)c3ccccc3C4=O)c2)C1 |
| 52.4% | 24.9% | 44.6% | 21% | – | O=C1c2ccccc2C(=O)c2oc(-c3c(Cl)cccc3Cl)nc21 |
| 53.7% | 30.5% | 62.1% | 22.7% | – | Cc1ccc(F)c(-c2nc3c(o2)C(=O)c2ccccc2C3=O)c1F |
| 70.7% | 30% | 68.3% | 34% | – | CN1CC[C@@H](Oc2cccc(-c3nc4c(o3)C(=O)c3ccccc3C4=O)c2)C1 |
| 84.3% | 92.5% | 92.5% | 78.3% | – | O=C1c2ccccc2C(=O)c2[nH]c(-c3ccccc3)nc21 |
